In PubChem BioAssay (NCI):
Values joined by “and” are separate entries in the source; they are usually repeats but may differ in a detail not shown here. Identical values can stand only once.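 Interpolation was linear, between the two tested concentrations surrounding the appropriate level; five concentrations were tested over 48 hours in 96-well plates. The concentration for 50% growth inhibition is given as GI50. TGI denotes the concentration required for complete inhibition of growth.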

Legend:
Experiment in all cases: NCI tumour cell line growth inhibition, 48 h
OVCAR-3 ovarian = system: OVCAR-3 ovarian
UO-31 renal = system: UO-31 renal
786-0 renal = system: 786-0 renal
LXFL 529 NSCLC = system: LXFL 529 NSCLC
SK-OV-3 ovarian = system: SK-OV-3 ovarian
SF-295 CNS = system: SF-295 CNS
DLD-1 colon = system: DLD-1 colon
HCC-2998 colon = system: HCC-2998 colon
MCF7 breast = system: MCF7 breast
HS 578T breast = system: HS 578T breast

Row | Structure (SMILES) | TGI (OVCAR-3 ovarian) | TGI (UO-31 renal) | TGI (786-0 renal) | TGI (LXFL 529 NSCLC) | TGI (SK-OV-3 ovarian) | TGI (SF-295 CNS) | TGI (DLD-1 colon) | TGI (HCC-2998 colon) | TGI (MCF7 breast) | TGI (HS 578T breast) | GI50 (OVCAR-3 ovarian) | GI50 (UO-31 renal) | GI50 (786-0 renal) | GI50 (LXFL 529 NSCLC) | GI50 (SK-OV-3 ovarian) | GI50 (SF-295 CNS) | GI50 (DLD-1 colon) | GI50 (HCC-2998 colon) | GI50 (MCF7 breast)
1 | O=C1C2C3CC(C4C5C=CC(C5)C34)C2C2C3CC(C12)C1C2C=CC(C2)C31 (stereo not given) | > 100 µM | > 100 µM | > 100 µM | > 100 µM | > 100 µM | > 100 µM | > 100 µM | > 100 µM | – | – | – | – | – | – | – | – | – | – | –
2 | COc1ccc(OC)c(/C=N/N=C(\N)NO)c1 | > 100 µM | 60.3 µM | > 100 µM | > 100 µM | > 100 µM | > 100 µM | > 100 µM | – | – | – | – | – | – | – | – | – | – | – | –
3 | Cc1cccc(C)c1N1C(=O)C(=O)C(c2nc3ccccc3s2)/C(=N\N)C1=O (stereo not given) | > 100 µM | > 100 µM | > 100 µM | > 100 µM | > 100 µM | > 100 µM | > 100 µM | > 100 µM | – | – | – | – | – | – | – | – | – | – | –
4 | CNS(=O)(=O)NNS(=O)(=O)c1ccc(OC)cc1 | > 100 µM | > 100 µM | > 100 µM | > 100 µM | > 100 µM | > 100 µM | > 100 µM | > 100 µM | – | – | – | – | – | – | – | – | – | – | –
5 | CCc1nc2ccc(N=Nc3c(O)ccc4ccccc34)cc2[nH]1 | 37.2 µM | 34.5 µM | 37.7 µM | 24.5 µM | > 62 µM | 43.5 µM | 57.3 µM | 29.7 µM | 42.2 µM | 48.6 µM | – | – | – | – | – | – | – | – | –
6 | COc1cc(/C=N/N=C(\N)NO)c(Cl)cc1O | – | > 100 µM | > 100 µM | > 100 µM | > 100 µM | > 100 µM | – | > 100 µM | – | – | – | – | – | – | – | – | – | – | –
7 | CC(=O)[CH-]C(=O)c1ccccc1.CC(=O)[CH-]C(=O)c1ccccc1.CC(=O)[CH-]C(=O)c1ccccc1.[Nd+3].[OH3+] | > 100 µM | > 100 µM | > 100 µM | > 100 µM | 99 µM | 86.2 µM | > 100 µM | > 100 µM | – | – | 45.7 µM | > 100 µM | 37 µM | 71.1 µM | 31.7 µM | 21.2 µM | 25 µM | 85.7 µM | –
8 | NC1=NN(c2ccccc2)C(=O)C1C(=O)C(=O)Nc1ccc(Cl)c(Cl)c1 (stereo not given) | > 100 µM | > 100 µM | > 100 µM | – | > 100 µM | > 100 µM | > 100 µM | > 100 µM | – | – | – | – | – | – | – | – | – | – | –
9 | CN(/N=C\c1ccnc2ccccc12)c1ccc([N+](=O)[O-])cc1 | > 100 µM | – | > 100 µM | > 100 µM | > 100 µM | > 100 µM | – | > 100 µM | – | – | – | – | – | – | – | – | – | – | –
10 | CC(C)CCCCCCCCCCCCC(=O)NCC(=O)NC1C(O)C(O)C(Nc2ncnc3nc[nH]c23)OC1C(O)CO (stereo not given) | 0.00189 µM and 0.00279 µM and 0.00509 µM | 0.00451 µM and 0.0075 µM | 0.526 µM | – | 0.00344 µM and 0.0224 µM | – | 3.83 µM | – | 0.394 µM and 0.352 µM | 0.446 µM | – | 0.005 µM | – | – | 0.005 µM | – | 0.0104 µM | < 1e-05 µM | 0.00287 µM and 0.0113 µM
11 | COc1c(-c2ccccc2)nc2ccc(Oc3ccccc3)nn12 | > 100 µM | > 100 µM | > 100 µM | > 100 µM | > 100 µM | > 100 µM | > 100 µM | > 100 µM | – | – | – | – | – | – | – | – | – | – | –
12 | O=C(Nc1ccc(Cl)c(Cl)c1)C(=O)C(C(=O)c1ccccc1-c1ccccc1)C1OC(=O)c2ccccc21 (stereo not given) | 31.9 µM | 33.6 µM | 25.6 µM | 21 µM | 78.3 µM | 73.6 µM | 30.1 µM | 27.6 µM | – | – | – | – | – | – | – | – | – | – | –
13 | O=C1/C(=C/c2ccc(Cl)cc2)CNC/C1=C\c1ccc(Cl)cc1 | 4.87 µM and 4.9 µM | 2.98 µM and 6.5 µM | 4.69 µM and 2.77 µM | 2.4 µM | > 100 µM | 4.59 µM and 5.8 µM | 6.78 µM | 4 µM and 3.36 µM | 21.2 µM | > 41.7 µM | – | 1.62 µM and 3.48 µM | – | – | – | 0.532 µM and 2.26 µM | – | – | –
14 | COC(=O)[C@@H]1Cc2c([nH]c3ccccc23)[C@H](c2ccccc2)N1 | 98.7 µM | 73.9 µM | > 100 µM | > 100 µM | 89.7 µM | 64.4 µM | > 100 µM | 91.8 µM | – | – | – | – | – | – | – | – | – | – | –
15 | Nc1c(Cl)ncnc1NCCCCCCCCCCCCNc1ncnc(Cl)c1N | 8.35 µM | 18.3 µM | 66.1 µM | 20.5 µM | > 100 µM | 5.92 µM | > 100 µM | 56.9 µM | – | – | – | – | – | – | – | – | – | – | –
16 | COC1(OC)C2(Cl)C(Cl)=C(Cl)C1(Cl)C1C2C2CC1(C(=O)O)c1ccccc12 (stereo not given) | 33.4 µM | 44.7 µM | 31.6 µM | 28 µM | 91.3 µM | 56.8 µM | 35.6 µM | 50.7 µM | – | – | – | – | – | – | – | – | – | – | –
17 | COC1OC2COC(C)(C)OC2C(OC(C)=O)C1NC(=O)N(CCCl)N=O (stereo not given) | > 100 µM | – | > 100 µM | > 100 µM | > 100 µM | > 100 µM | > 100 µM | > 100 µM | – | – | – | – | – | – | – | – | – | – | –
18 | O=C1c2ccccc2C2CCC1c1ccccc12 (stereo not given) | > 100 µM | 70.5 µM | > 100 µM | > 100 µM | > 100 µM | > 100 µM | > 100 µM | > 100 µM | – | – | – | – | – | – | – | – | – | – | –
